From ChEMBL document CHEMBL5532742, “Design and Synthesis of the Linezolid Bioisosteres to Resolve the Serotonergic Toxicity Associated with Linezolid” (ACS Med Chem Lett, 2024) come the findings set out here.

SMILES strings stand for the structures. In brackets after ≈: the same amount, converted by molar mass.

Common to all, as to type: functional
Common to all, as to settings: time 1 weeks

The test system of test [1] is Mycobacterium tuberculosis. Description: Antimycobacterial activity against low-grade isoniazid resistant Mycobacterium tuberculosis clinical isolate harboring mutation in inhA promoter region incubated for 1 week by resazurin dye based fluorescence analysis.
Test [2] relates to Mycobacterium tuberculosis. The test is described as follows: Antimycobacterial activity against high-grade isoniazid resistant Mycobacterium tuberculosis clinical isolate harboring katG S315T mutant incubated for 1 week by resazurin dye based fluorescence analysis.
Test [3] deals with Mycobacterium tuberculosis. The test is described as follows: Antimycobacterial activity against high-grade rifampicin resistant Mycobacterium tuberculosis clinical isolate harboring rpoB S531L mutant incubated for 1 week by resazurin dye based fluorescence analysis.
The test system of test [4] is Mycobacterium tuberculosis. Description: Antimycobacterial activity against high-grade isoniazid, rifampicin, ethambutol and pyrazinamide resistant Mycobacterium tuberculosis clinical isolate harboring mutations in inhA, katG, rpoB H526D, eis genes incubated for 1 week by resazurin dye based fluorescence analysis.

On to `O=C1O[C@@H](CNS(=O)(=O)c2cccs2)CN1c1ccc(N2CCOCC2)c(F)c1`, for which the MIC50 in test [1] came out at 1.98 µM (≈ 0.874 µg/mL); in test [2], 4.52 µM (≈ 2 µg/mL); in test [3], 3.32 µM (≈ 1.47 µg/mL); in test [4], 7.01 µM (≈ 3.09 µg/mL).
On the same counts, the results for `O=C(NC[C@H]1CN(c2ccc(N3CCOCC3)c(F)c2)C(=O)O1)C1CC1` are 0.33 µM (≈ 0.12 µg/mL), 1.53 µM (≈ 0.556 µg/mL), 0.82 µM (≈ 0.298 µg/mL) and 1.99 µM (≈ 0.723 µg/mL).
Regarding `O=C(NC[C@H]1CN(c2ccc(N3CCOCC3)c(F)c2)C(=O)O1)c1cccs1`, the MIC50 in test [1] was 1.78 µM (≈ 0.722 µg/mL); in test [2], 4.01 µM (≈ 1.63 µg/mL); in test [3], 2.78 µM (≈ 1.13 µg/mL); in test [4], 5.01 µM (≈ 2.03 µg/mL).
With `CCS(=O)(=O)NC[C@H]1CN(c2ccc(N3CCOCC3)c(F)c2)C(=O)O1`, the MIC50 turned out to be 0.14 µM (≈ 0.0542 µg/mL) in test [1], 0.53 µM (≈ 0.205 µg/mL) in test [2], 0.24 µM (≈ 0.093 µg/mL) in test [3] and 0.92 µM (≈ 0.356 µg/mL) in test [4].
On the same counts, the results for `CS(=O)(=O)NC[C@H]1CN(c2ccc(N3CCOCC3)c(F)c2)C(=O)O1` are 0.85 µM (≈ 0.317 µg/mL), 10.35 µM (≈ 3.86 µg/mL), 1.82 µM (≈ 0.68 µg/mL) and 8.83 µM (≈ 3.3 µg/mL).
`NNC(=O)c1ccncc1` [ISONIAZID]: the MIC50 is 0.98 µM (≈ 0.134 µg/mL) in test [1], 11.06 µM (≈ 1.52 µg/mL) in test [2], 23.03 µM (≈ 3.16 µg/mL) in test [3] and greater than 100 µM in test [4].
Take `CC(=O)NC[C@H]1CN(c2ccc(N3CCOCC3)c(F)c2)C(=O)O1` [LINEZOLID]: the MIC50 in test [1] was 0.12 µM (≈ 0.0405 µg/mL); in test [2], 0.42 µM (≈ 0.142 µg/mL); in test [3], 0.24 µM (≈ 0.081 µg/mL); in test [4], 0.81 µM (≈ 0.273 µg/mL).
Consider `CO[C@H]1/C=C/O[C@@]2(C)Oc3c(C)c(O)c4c(O)c(c(/C=N/N5CCN(C)CC5)c(O)c4c3C2=O)NC(=O)/C(C)=C\C=C\[C@H](C)[C@H](O)[C@@H](C)[C@@H](O)[C@@H](C)[C@H](OC(C)=O)[C@@H]1C` [RIFAMPIN], for which the MIC50 in test [1] is less than 0.04 µM; in test [2] it was less than 0.04 µM; in test [3] it was 28.15 µM (≈ 23.2 µg/mL); in test [4], greater than 100 µM.
